Assay results as given in PubChem BioAssay (NCI).
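Five concentrations, 48 hours, 96-well plates. The concentration for 50% growth inhibition is given as GI50. Definition used: TGI = concentration required for complete inhibition of growth.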

What was measured:
Assay in all cases: NCI tumour cell line growth inhibition, 48 h
[1] = system: COLO 205 colon
[2] = system: HOP-92 NSCLC
[3] = system: EKVX NSCLC
[4] = system: T-47D breast
[5] = system: KM12 colon
[6] = system: DU-145 prostate
[7] = system: PC-3 prostate
[8] = system: MOLT-4 leukemia
[9] = system: OVCAR-4 ovarian
[10] = system: MCF7 breast
[11] = system: HS 578T breast
[12] = system: SF-268 CNS
[13] = system: SNB-75 CNS
[14] = system: OVCAR-5 ovarian
[15] = system: LOX IMVI melanoma
[16] = system: TK-10 renal
[17] = system: OVCAR-8 ovarian
[18] = system: K-562 leukemia
[19] = system: SW-620 colon
[20] = system: MDA-MB-231 breast
[21] = system: RXF 393 renal
[22] = system: CAKI-1 renal
[23] = system: HOP-62 NSCLC
[24] = system: NCI-H23 lung
[25] = system: NCI/ADR-RES ovarian
[26] = system: SR leukemia
[27] = system: UACC-257 melanoma
[28] = system: A549 NSCLC
[29] = system: MDA-MB-435
[30] = system: SK-OV-3 ovarian
[31] = system: U251 CNS
[32] = system: HL-60(TB) leukemia
[33] = system: SK-MEL-2 melanoma
[34] = system: NCI-H226 lung
[35] = system: OVCAR-3 ovarian
[36] = system: RPMI-8226 leukemia
[37] = system: SK-MEL-28 melanoma
[38] = system: UACC-62 melanoma
[39] = system: UO-31 renal
[40] = system: HT29 colon
[41] = system: IGROV1 ovarian
[42] = system: NCI-H522 lung
[43] = system: ACHN renal
[44] = system: CCRF-CEM leukemia
[45] = system: SNB-19 CNS
[46] = system: M14 melanoma
[47] = system: BT-549 breast
[48] = system: A498 renal
[49] = system: HCT-15 colon
[50] = system: HCC-2998 colon

CC[C@@]1(OC(=O)CN(C)C)C(=O)OCc2c1cc1n(c2=O)Cc2cc3c(N)cccc3nc2-1
GI50 [1]: 656 nM
TGI [1]: 6900 nM
GI50 [2]: 23.9 nM
TGI [2]: 785 nM
GI50 [3]: 262 nM
TGI [3]: 3580 nM
GI50 [4]: 25.3 nM
TGI [4]: 868 nM
GI50 [5]: 102 nM
TGI [5]: 342 nM
GI50 [6]: 11.5 nM
TGI [6]: 81 nM
GI50 [7]: 52.4 nM
TGI [7]: > 100000 nM
GI50 [8]: < 10 nM
TGI [8]: 211 nM
GI50 [9]: 625 nM
TGI [9]: 14600 nM
GI50 [10]: 11.5 nM
TGI [10]: > 100000 nM
GI50 [11]: 2030 nM
TGI [11]: 58000 nM
GI50 [12]: < 10 nM
TGI [12]: 110 nM
GI50 [13]: 42.8 nM
TGI [13]: 283 nM
GI50 [14]: 317 nM
TGI [14]: > 100000 nM
GI50 [15]: 14 nM
TGI [15]: 162 nM
GI50 [16]: 1680 nM
TGI [16]: > 100000 nM
GI50 [17]: 27.2 nM
TGI [17]: 488 nM
GI50 [18]: 45.5 nM
TGI [18]: > 100000 nM
GI50 [19]: 18.1 nM
TGI [19]: 2570 nM
GI50 [20]: 1070 nM
TGI [20]: > 100000 nM
GI50 [21]: 144 nM
TGI [21]: 576 nM
GI50 [22]: < 10 nM
TGI [22]: 53.7 nM
GI50 [23]: 11.9 nM
TGI [23]: 432 nM
GI50 [24]: 27.7 nM
TGI [24]: 684 nM
GI50 [25]: 34 nM
TGI [25]: 2410 nM
GI50 [26]: < 10 nM
TGI [26]: 176 nM
GI50 [27]: 93.3 nM
TGI [27]: 981 nM
GI50 [28]: 57.5 nM
TGI [28]: 1370 nM
GI50 [29]: 78 nM
TGI [29]: 259 nM
GI50 [30]: 40.2 nM
TGI [30]: 884 nM
GI50 [31]: 21.7 nM
TGI [31]: 249 nM
GI50 [32]: 22.6 nM
TGI [32]: 10700 nM
GI50 [33]: 1240 nM
TGI [33]: > 100000 nM
GI50 [34]: 23.3 nM
TGI [34]: 161 nM
GI50 [35]: 38.3 nM
TGI [35]: 218 nM
GI50 [36]: 63.6 nM
TGI [36]: 541 nM
GI50 [37]: 297 nM
TGI [37]: 4280 nM
GI50 [38]: 16.4 nM
TGI [38]: 159 nM
GI50 [39]: 16.6 nM
TGI [39]: 57 nM
GI50 [40]: 118 nM
TGI [40]: > 100000 nM
GI50 [41]: 60.9 nM
TGI [41]: 421 nM
GI50 [42]: 74.4 nM
TGI [42]: 3360 nM
GI50 [43]: 28.6 nM
TGI [43]: 287 nM
GI50 [44]: < 10 nM
TGI [44]: 25 nM
GI50 [45]: 25.2 nM
TGI [45]: > 100000 nM
GI50 [46]: 17.8 nM
TGI [46]: 128 nM
GI50 [47]: 63.4 nM
TGI [47]: > 100000 nM
GI50 [48]: 20.8 nM
TGI [48]: 98.7 nM
GI50 [49]: 317 nM
TGI [49]: > 100000 nM
GI50 [50]: 131 nM
TGI [50]: 875 nM
